The values that follow come from patent EP4461368A1, “5H-PYRROLO[3,2-B:5,4-C']DIPYRIDINE DERIVATIVES AND 6,7,8,9-TETRAHYDRO-5H-PYRROLO[3,2-B:5,4-C']DIPYRIDINE DERIVATIVES USEFUL IN THE TREATMENT OF CANCER” (Institut Regional du Cancer de Montpellier, priority 2023, dated 2024).

As usually defined, the IC50 is the concentration that inhibits the measured activity by half.

Common to all, as to assay type: cell-based
The target in one assay is T1, Cytoplasmic- MDM2 (Homo sapiens, UniProt Q00987).
T1 construct: endogenous in cells; host or cells: hPac / ZR75.1 cancer cells
Description: MDM2 degradation by western blot and immunofluorescence, cytoplasmic MDM2. Conditions: degradation efficacy, cells collected 18 hours after compound addition. As for the experimental part:
(§1) MDM2 degradation is measured by western blot and immunofluorescence.
(§2) Cells were seeded in 6-well plates (Sarsted) in complete DMEM medium as to obtain triplicates for each condition (500 000 cells/well). After 24 hours, the compounds were added to the cells. Then, 18 hours later cells were collected for western blotting or immunofluorescence. • Western Blot: Cells were collected in Laemmli buffer, boiled and analyzed in 8% acrylamide gel. • Immunofluorescence: Cancer cells were fixed with paraformaldehyde (PFA) 4% for 15 minutes then permeabilized for 15 minutes at RT with phosphate-buffered saline (PBS) Triton 0.1% and blocked with Phosphate buffered saline-[…] (PBS-BSA) 0.3% for 1 hour at RT before overnight incubation at 4 °C with an anti- mouse monoclonal antibody against MDM2 (MABE340 Millipore). Immunodetection was performed using an Alexa 488-conjugated anti-mouse IgG antibody (Thermo Fisher) for 45 minutes at RT. Cover glasses were mounted with Mowiol (Biovalley) and DAPI (Sigma) before analysis on a Zeiss apotome.
For orientation: In western blotting, separated proteins are transferred to a membrane and probed.

Assay [1] deals with cancer cells not exhibiting recruitment of MDM2 to chromatin (Hpac/ZR75.1). Description: Cell survival, Sulforhodamine B assay (SRB assay), cells without recruitment of MDM2 to chromatin. Conditions: Hpac/ZR75.1 cells, treated for 72 hours with increasing concentrations. As for the experimental part:
(§3) Cell survival after MDM2 inhibitor treatment (IC50) was determined using the Sulforhodamine B assay (SRB assay).
(§4) Cells were seeded in 96-well plates (Sarsted) in complete DMEM medium as to obtain triplicates for each condition (5 000 cells/well). After 24 hours, serial dilutions of the indicated compounds were added to the cells. […] Fixed SRB was finally dissolved in 10 mM Tris-HCl solution and 560nm absorbance was read using a PHERAstar FSX plate reader.

A further assay has as its target T2, Chromatin-MDM2 (Homo sapiens, UniProt Q00987).
T2 construct: endogenous in cells; host or cells: IB111 liposarcoma cells
Description: MDM2 degradation by western blot and immunofluorescence, chromatin-bound MDM2. Particulars: degradation efficacy, cells collected 18 hours after compound addition. As for the experimental part: as §1, §2

For assay [2], the system named is cancer cells exhibiting recruitment of MDM2 to chromatin (IB111). Kind of assay: Cell survival, Sulforhodamine B assay (SRB assay), cells with recruitment of MDM2 to chromatin. As to the method: as §3, §4
For orientation: In SRB staining, fixed cells bind dye roughly in proportion to their protein.

The mark [3] stands for this setting: treated with increasing concentrations.

T1 sequence (Q00987 whole entry): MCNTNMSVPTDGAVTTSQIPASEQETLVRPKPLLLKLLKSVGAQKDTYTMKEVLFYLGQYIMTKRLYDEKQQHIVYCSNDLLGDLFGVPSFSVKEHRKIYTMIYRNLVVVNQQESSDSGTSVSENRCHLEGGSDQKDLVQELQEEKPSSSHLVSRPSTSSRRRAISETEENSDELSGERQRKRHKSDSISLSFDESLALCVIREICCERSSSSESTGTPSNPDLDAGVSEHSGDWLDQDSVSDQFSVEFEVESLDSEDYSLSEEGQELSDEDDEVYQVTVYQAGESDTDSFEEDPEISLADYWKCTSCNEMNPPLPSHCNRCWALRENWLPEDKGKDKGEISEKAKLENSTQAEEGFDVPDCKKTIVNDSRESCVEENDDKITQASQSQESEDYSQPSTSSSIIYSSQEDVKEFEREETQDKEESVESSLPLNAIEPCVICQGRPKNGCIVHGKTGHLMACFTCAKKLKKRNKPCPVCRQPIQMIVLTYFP
T2 sequence (Q00987 whole entry): as above

Consider `COc1ccc2[nH]c3c(-c4cccc5ccccc45)nccc3c2n1.O=S(=O)(O)O` [Compound 13, 2-methoxy-6-(naphthalen-1-yl)-5H-pyrrolo[3,2-b:5,4-c']dipyridine sulfate], for which the “Cytoplasmic- MDM2 degradation” value at Cytoplasmic- MDM2 is listed as “- (<25%: no degradation: indicated "-" in the table)”. Further, the “efficiency on cancer cells not exhibiting recruitment of MDM2 to chromatin” value in assay [1] was “not efficient”. The Chromatin-MDM2 degradation result at Chromatin-MDM2 was “++ (40%≤++<80%)”.

Regarding `COc1ccc2[nH]c3c(-c4ccc(F)c5ccccc45)nccc3c2n1` [Compound 15, 6-(4-fluoronaphthalen-1-yl)-2-methoxy-5H-pyrrolo [3,2-b: 5,4-c'] dipyridine], the “Cytoplasmic- MDM2 degradation” value at Cytoplasmic- MDM2 was “- (<25%: no degradation: indicated "-" in the table)”. The “efficiency on cancer cells not exhibiting recruitment of MDM2 to chromatin” value in assay [1] is given as “not efficient”. Also, the Chromatin-MDM2 degradation entry at Chromatin-MDM2 is reported as “++ (40%≤++<80%)”. In addition, the half-maximal inhibitory concentration (IC50) in assay [2] (setting [3]) was less than 500 nM.

Turning to “2-methoxy-6-(5,6,7,8-tetrahydronaphthalen-1-yl)-5H-pyrrolo[3,2-b:5,4-c'] dipyridine [Compound 14]”, the “Cytoplasmic- MDM2 degradation” value at Cytoplasmic- MDM2 was “- (<25%: no degradation: indicated "-" in the table)”. The “efficiency on cancer cells not exhibiting recruitment of MDM2 to chromatin” value in assay [1] is given as “not efficient”. The Chromatin-MDM2 degradation entry on Chromatin-MDM2 is recorded as “+++ (+++ ≥ 80%)”. In assay [2] (treated for 72 hours with increasing concentrations), this compound showed a half-inhibitory concentration (IC50) of less than 500 nM.

Turning to `COc1ccc2[nH]c3c(-c4ccc(F)c5ccccc45)nccc3c2n1.Cl` [Compound 17, 6-(4-fluoronaphthalen-1-yl)-2-methoxy-5H-pyrrolo [3,2-b: 5,4-c']dipyridine hydrochloride], the “Cytoplasmic- MDM2 degradation” value at Cytoplasmic- MDM2 is “- (<25%: no degradation: indicated "-" in the table)”. For the same compound, the Chromatin-MDM2 degradation entry on Chromatin-MDM2 is “+ (25%≤+<40%)”.

With `COc1ccc2[nH]c3c(-c4cccc5ccccc45)nccc3c2n1.O=P(O)(O)O` [Compound 12, 2-methoxy-6-(naphthalen-1-yl)-5H-pyrrolo[3,2-b:5,4-c']dipyridine phosphate], on Cytoplasmic- MDM2, the “Cytoplasmic- MDM2 degradation” value is given as “- (<25%: no degradation: indicated "-" in the table)”. The “efficiency on cancer cells not exhibiting recruitment of MDM2 to chromatin” value in assay [1] is “not efficient”. For the same compound, the Chromatin-MDM2 degradation result at Chromatin-MDM2 is given as “++ (40%≤++<80%)”.

For `COc1ccc2[nH]c3c(-c4cccc5ccccc45)nccc3c2n1.Cl` [Compound 4, 2-methoxy-6-(naphthalen-1-yl)-5H-pyrrolo[3,2-b:5,4-c']dipyridine hydrochloride], the “Cytoplasmic- MDM2 degradation” value at Cytoplasmic- MDM2 is given as “- (<25%: no degradation: indicated "-" in the table)”. For the same compound, in assay [1], the “efficiency on cancer cells not exhibiting recruitment of MDM2 to chromatin” value is given as “not efficient”. For the same compound, at Chromatin-MDM2, the Chromatin-MDM2 degradation entry is “+++ (+++ ≥ 80%)”.

In the case of `COc1ccc2[nH]c3c(-c4ccnc5nccnc45)nccc3c2n1` [Compound 3, 2-methoxy-6-(pyrido[2,3-b]pyrazin-8-yl)-5H-pyrrolo[3,2-b:5,4-c'] dipyridine], the “Cytoplasmic- MDM2 degradation” value on Cytoplasmic- MDM2 is “- (<25%: no degradation: indicated "-" in the table)”. On Chromatin-MDM2, the Chromatin-MDM2 degradation entry is “+ (25%≤+<40%)”.

In the case of `COc1ccc2[nH]c3c(-c4cccc5ccccc45)nccc3c2n1` [Compound 1, 2-methoxy-6-(naphthalen-1-yl)-5H-pyrrolo[3,2-b:5,4-c']dipyridine], the “Cytoplasmic- MDM2 degradation” value on Cytoplasmic- MDM2 was “- (<25%: no degradation: indicated "-" in the table)”. The “efficiency on cancer cells not exhibiting recruitment of MDM2 to chromatin” value in assay [1] was “not efficient”. The Chromatin-MDM2 degradation entry on Chromatin-MDM2 is “+++ (+++ ≥ 80%)”. This compound also yielded an IC50 in assay [2] (setting [3]) of less than 500 nM.

Turning to `COc1ccc2[nH]c3c(-c4cccc5ccccc45)nccc3c2n1.O=C(O)/C=C/C(=O)O` [Compound 10, 2-methoxy-6-(naphthalen-1-yl)-5H-pyrrolo[3,2-b:5,4-c']dipyridine fumarate], the “Cytoplasmic- MDM2 degradation” value on Cytoplasmic- MDM2 was “- (<25%: no degradation: indicated "-" in the table)”. For the same compound, the “efficiency on cancer cells not exhibiting recruitment of MDM2 to chromatin” value in assay [1] is given as “not efficient”. For the same compound, the Chromatin-MDM2 degradation entry at Chromatin-MDM2 is “+++ (+++ ≥ 80%)”.

Consider `COc1ccc2[nH]c3c(-c4ccnc5ccccc45)nccc3c2n1` [Compound 6, 2-methoxy-6-(quinolin-4-yl)-5H-pyrrolo[3,2-b:5,4-c']dipyridine], for which, at Cytoplasmic- MDM2, the “Cytoplasmic- MDM2 degradation” value is given as “- (<25%: no degradation: indicated "-" in the table)”. For the same compound, the Chromatin-MDM2 degradation entry on Chromatin-MDM2 is recorded as “+ (25%≤+<40%)”.

As to `COc1ccc2[nH]c3c(-c4cccc5c4CCCC5)nccc3c2n1.Cl` [Compound 16, 2-methoxy-6-(5,6,7,8-tetrahydronaphthalen-1-yl)-5H-pyrrolo[3,2-b:5,4-c']dipyridine hydrochloride], the “Cytoplasmic- MDM2 degradation” value on Cytoplasmic- MDM2 was “- (<25%: no degradation: indicated "-" in the table)”. Moreover, the “efficiency on cancer cells not exhibiting recruitment of MDM2 to chromatin” value in assay [1] is on record as “not efficient”. Besides, the Chromatin-MDM2 degradation result at Chromatin-MDM2 was “+++ (+++ ≥ 80%)”. The concentration for half-maximal inhibition (IC50) in assay [2] (setting [3]) is less than 500 nM.

Turning to `COc1ccc2[nH]c3c(-c4cccc5ccccc45)nccc3c2n1.O=C(O)CC(O)(CC(=O)O)C(=O)O` [Compound 11, 2-methoxy-6-(naphthalen-1-yl)-5H-pyrrolo[3,2-b:5,4-c']dipyridine 2-hydroxypropane-1,2,3-tricarboxylate], the “Cytoplasmic- MDM2 degradation” value at Cytoplasmic- MDM2 was “- (<25%: no degradation: indicated "-" in the table)”. In addition, the “efficiency on cancer cells not exhibiting recruitment of MDM2 to chromatin” value in assay [1] is “not efficient”. Besides, the Chromatin-MDM2 degradation entry on Chromatin-MDM2 is reported as “+++ (+++ ≥ 80%)”.
